Assay results: ChEMBL document CHEMBL3638822, “Pyrazolopyrimidine compounds and their use as PDE10 inhibitors” (2015)
pIC50: −log10 of the molar value.

Molecular target: T1, Phosphodiesterase (Bos taurus, UniProt F1MPW5)
T1 sequence (F1MPW5 whole entry): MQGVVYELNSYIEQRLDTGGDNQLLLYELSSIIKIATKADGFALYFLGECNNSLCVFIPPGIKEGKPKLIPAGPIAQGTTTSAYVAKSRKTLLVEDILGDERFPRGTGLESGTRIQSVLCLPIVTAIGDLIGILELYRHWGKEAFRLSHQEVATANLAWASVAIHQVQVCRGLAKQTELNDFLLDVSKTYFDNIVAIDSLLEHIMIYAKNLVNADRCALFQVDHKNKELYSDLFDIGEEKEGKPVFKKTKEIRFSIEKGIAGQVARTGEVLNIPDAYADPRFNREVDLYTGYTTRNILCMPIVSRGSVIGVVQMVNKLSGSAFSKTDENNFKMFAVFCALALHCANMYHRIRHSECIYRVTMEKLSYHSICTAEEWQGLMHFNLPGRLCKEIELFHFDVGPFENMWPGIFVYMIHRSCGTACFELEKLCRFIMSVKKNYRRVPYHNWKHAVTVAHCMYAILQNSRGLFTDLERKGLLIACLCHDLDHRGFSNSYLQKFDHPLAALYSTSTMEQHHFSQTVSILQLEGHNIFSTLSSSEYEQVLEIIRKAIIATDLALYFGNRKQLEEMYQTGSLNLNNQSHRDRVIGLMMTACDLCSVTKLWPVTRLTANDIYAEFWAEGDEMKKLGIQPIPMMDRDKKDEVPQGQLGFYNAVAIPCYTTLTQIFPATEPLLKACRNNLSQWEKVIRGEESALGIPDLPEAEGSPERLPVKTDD
Experiment: Inhibition Assay: The PDE assay was performed according to a modified method referred to a report of Kotera et al. (Kotera et al., Biochem. Pharmacol., vol. 60, pp. 1333-1341, 2000), by the radiolabeled nucleotide method.Specifically, the measurements of the inhibitory activities were carried out in the following method.(Method) The test compounds were dissolved in dimethyl sulfoxide (DMSO). 2 uL of the compound solution was added to 96 well plate, and the reaction mixture (20 uL of PDE enzyme solution in 50 mM Tris-HCl, pH 8.0, 40 uL of the assay buffer (50 mM Tris-HCl, pH 8.0, 2 mM MgCl2, 0.07% 2-mercaptoethanol, and 0.825 mg/mL bovine serum albumin), and 20 uL of 1 mg/mL snake venom in 50 mM Tris-HCl, pH8.0) was added to the 96 well plate. The enzyme reaction was started by adding and mixing with substrate solution of 20 L containing approximate 35 nM 3H-cAMP in 50 mM Tris-HCl, pH 8.0. The final concentration of cAMP in the reaction mixtures was 7 nM.

Row | SMILES | pIC50
1 | Cc1ccc2nc(C)c(-c3cc4nc(N5CCCC5)cc(N[C@@H]5CCS(=O)(=O)C5)n4n3)nc2c1 | 11.07
2 | Cc1nc2ccccc2nc1-c1cc2nc(C3=CCCC3)cc(NC3CCOCC3)n2n1 | 9.66
3 | Cc1nc2ccc(F)cc2nc1-c1cc2nc(N3CC[C@@H](F)C3)cc(N[C@H]3CC[C@](C)(O)CC3)n2n1 | 10.05
4 | CC(=O)N1CCC(Nc2cc(N3CCCC3)nc3cc(-c4nc5cc(C)ccc5nc4C)nn23)CC1 | 10.36
5 | Cc1ccc2nc(-c3cc4nc(N5CCCC5)cc(NC5CCOCC5)n4n3)c(C)nc2c1 | 9.34
6 | Cc1nc2ccccc2nc1-c1cc2nc(N3CCCC3)cc(NC[C@H](O)C(F)(F)F)n2n1 | 9.89
7 | Cc1nc2ccccc2nc1-c1cc2nc(N3CCCC3)cc(N(C)C3CCOCC3)n2n1 | 11.35
8 | Cc1ccc2nc(C)c(-c3cc4nc(N5CC(O)C5)cc(NC5CCOCC5)n4n3)nc2c1 | 8.97
9 | Cc1nc2ccccc2nc1-c1cc2nc(N3CCCC3)cc(NC3CCOCC3)n2n1 | 9.96
10 | CO[C@H]1CC[C@H](Nc2cc(N3CCCC3)nc3cc(-c4nc5cc(C(F)(F)F)ccc5nc4C)nn23)CC1 | 10.35
11 | Cc1nc2ccccc2nc1-c1cc2nc(N3CC[C@@H](F)C3)cc(NCC(C)(C)O)n2n1 | 9.49
12 | Cc1nc2ccccc2nc1-c1cc2nc(N3CCC[C@H]3CO)cc(N[C@@H]3CCCOC3)n2n1 | 9.41
13 | Cc1nc2ccccc2nc1-c1cc2nc(N3CC[C@@H](F)C3)cc(NC3COC3)n2n1 | 9.19
14 | Cc1nc2ccc(F)cc2nc1-c1cc2nc(N3CC[C@@H](F)C3)cc(NCC(C)(C)O)n2n1 | 10.05
15 | C[C@]1(O)CC[C@H](Nc2cc(N3CC[C@@H](F)C3)nc3cc(-c4nc5ccccc5nc4C(F)(F)F)nn23)CC1 | 9.74
16 | Cc1nc2ccccc2nc1-c1cc2nc(N3CC=CC3)cc(NC3CCOCC3)n2n1 | 9.70
17 | Cc1nc2ccccc2nc1-c1cc2nc(N3CC[C@@H](F)C3)cc(NC3CC3)n2n1 | 9.06
18 | Cc1ccc2nc(C)c(-c3cc4nc(N5CCC[C@H]5CO)cc(N(C5CCOCC5)C5CC5)n4n3)nc2c1 | 11.17
19 | Cc1nc2ccccc2nc1-c1cc2nc(N3CCCC3)cc(N3CCCC3)n2n1 | 9.24
20 | Cc1nc2c(nc1-c1cc3nc(N4CCCC4)cc(NC4CCC(F)(F)CC4)n3n1)CCCC2 | 9.64
21 | CCc1nc2ccccc2nc1-c1cc2nc(N3CC[C@@H](F)C3)cc(N[C@H]3CC[C@H](OC)CC3)n2n1 | 9.41
22 | Cc1nc2c(C)cccc2nc1-c1cc2nc(N3CCCC3)cc(NC3CCOCC3)n2n1 | 9.11
23 | Cc1nc2ccccc2nc1-c1cc2nc(N3CC[C@@H](F)C3)cc(NC3CCOCC3)n2n1 | 9.08
24 | Cc1nc2ccccc2nc1-c1cc2nc(N3CCCC3)cc(OC3CCOCC3)n2n1 | 9.42
25 | Cc1nc2ccccc2nc1-c1cc2nc(N3CCCC3)cc(CC3CCOCC3)n2n1 | 9.44
26 | Cc1nc(C)c(-c2cc3nc(N4CCCC4)cc(N(C)C4CCOCC4)n3n2)nc1C | 9.32
27 | Cc1nc2ccc(F)cc2nc1-c1cc2nc(N3CCCC3)cc(N[C@H]3CCCC[C@@H]3O)n2n1 | 10.46
28 | Cc1nc2ccccc2nc1-c1cc2nc(N3CCCC3)cc(NCCC#N)n2n1 | 10.28
29 | CCCN1CCC(Nc2cc(N3CCCC3)nc3cc(-c4nc5cc(C)ccc5nc4C)nn23)CC1 | 9.82
30 | Cc1ccc2nc(C)c(-c3cc4nc(N5CCCC5)cc(NCCN(C)C)n4n3)nc2c1 | 9.77
